Reference: patent EP0414422A2, “2-Oxo-1-oxa-8-azaspiro [4,5] decane derivatives, processes for their preparation and pharmaceutical compositions thereof” (RICHTER GEDEON VEGYESZETI GYAR R.T., priority 1989, dated 1991)

How the values were obtained:
Acute toxicity = details: male, Hannover-Wistar, rat, in vivo, po; rats, p.o., deaths observed for 14 days; read-out: LD₅₀
Description: (§1) Male CFLP mice with a body-weight of 18 to 25 g and male Hannover-Wistar rats with a body-weight of 160 to 180 g were used for the pharmacological investigations. The test compounds were orally administered in a 2% Tween-80 suspension. The pharmacological investigating methods used are described hereinafter.
Rats were treated with various doses of the test compounds. […] The LD₅₀ value, i.e. the dose causing the death of half of the animals, was determined from the percentage of the dead animals.

rats = assay: Inhibition of the conditioned avoidance response (CAR inhibition) on rats; assay type: in vivo; details: Rattus norvegicus, po; male Hannover-Wistar rats, p.o., treated 3 hours before the experiment; dose causing 50% inhibition of the conditioned avoidance response; read-out: CAR ED₅₀
Excerpt: as §1
2. Inhibition of the conditioned avoidance response (CAR inhibition) on rats
The method of D. Bovet et al. (Neuropsychopharmacology, ed. R. Rothlin Vol. 2, p. 142, Elsevier Publishing Co. N.Y. 1961) was used.
Male rats weighing 160 to 180 g were conditioned in an automated 6-channel Shuttle box for 10 days. Each daily session consisted of 50 cycles and each one cycle lasted for 40 seconds. Within a single cycle an intermittent light stimulus for 15 seconds as conditioned stimulus, and an electric stimulus of 0.8 mA for 10 seconds as unconditioned stimulus, were used with an intersignal time of 15 seconds. When an animal changed its half-court during the conditioned stimulus period, the stimulus was abolished and the footshock was avoided (conditioned avoidance response; abbreviated: CAR). Animals with a performance of at least 80% on the 8th to 10th days of conditioning were considered to be useful for the study. 3 hours before the experiment the animals were treated with various doses of the test substances and the ED₅₀ value, i.e. the dose causing an 50% inhibition of the conditioned avoidance response of the animals, was determined. Groups consisting of 10 animals each were used for each dose.

mice [1] = assay: Inhibition of the aggressive behaviour of the mice; assay type: in vivo; details: Mus musculus, po; male mice, p.o., 3 hours following the treatment, electric stimulation of 1 mA; read-out: Antiaggressive effect, ED₅₀
Description: as §1
4. Inhibition of the aggressive behaviour of the mice
The method described in J. Pharmacol. Expt. Therap. 125, 28 (1959) was used.
Pairs of male mice weighing 20 to 25 each were treated with the test compounds and then placed in cages. 3 hours following the treatment an aggressive behaviour was induced on the animals by using an electric stimulation of 1 mA current intensity. Each group consisted of 5 pairs of mice. The ED₅₀ values were calculated from the percentage of animal pairs showing no aggressive behaviour as a result of the treatment. (ED₅₀ value is the dose inhibiting the aggressive behaviour on 50% of the animals.)

aggregated mice = assay: Protective effect against the amphetamine group toxicity on aggregated mice; assay type: in vivo; details: Mus musculus; male CFLP mice, p.o., one hour before 21 mg/kg d-amphetamine intraperitoneally; surviving animals counted after 24 hours; read-out: Protection against amph. ED₅₀
Description: as §1
1. Protective effect against the amphetamine group toxicity on aggregated mice
The method described in Arch. Int. Pharmacodyn. 163, 79 (1966) was used.
The mice were treated with various doses of the test substances. After one hour following the above treatment, the animals were intraperitoneally given 21 mg/kg of d-amphetamine and then the groups consisting of 10 animals each were tightly packed together in plexiglass boses of 15x15x10 cm in size. After 24 hours had elapsed following the amphetamine treatment the surviving animals were counted. The ED₅₀ values of the substances were calculated from the percentage of the surviving animals. The ED₅₀ value is the dose protecting 50% of the animals from death.

mice [2] = assay: Measurement of the spontaneous body temperature; assay type: in vivo; details: 30 mg/kg orally, rectal temperature 5 hours following treatment, related to untreated control animals
Description: as §1
3. Measurement of the spontaneous body temperature
Groups consisting of 10 mice each were orally treated with 30 mg/kg doses of the test substances. After treatment the rectal temperature of the male mice was determined each hour for 5 hours. The average values of temperature decrease related to the body temperature of the untreated control animals (37.1±0.8 °C) 5 hours following treatment are given in Table 1.

| SMILES | LD50 at 14 days (Acute toxicity) | ED50 (rats) | ED50 (mice [1]) | ED50 (aggregated mice) | Decrease in the spontaneous temperature (mice [2]) |
| --- | --- | --- | --- | --- | --- |
| C=C1N(CC)C(=O)OC12CCN(CCCN1c3ccccc3Sc3ccc(Cl)cc31)CC2 [B, 8-[3-(2-chloro-10H-phenothiazin-10-yl)propyl]-3-ethyl-4-methylene-2-oxo-1-oxa-3,8-diazaspiro[4,5]decane] | 500 mg/kg | 1.6 mg/kg | 10.9 mg/kg | 1.6 mg/kg | -7.4 C° |
| C=C1N(C)C(=O)OC12CCN(CCCN1c3ccccc3Sc3ccc(C(F)(F)F)cc31)CC2 [C, 3-methyl-4-methylene-2-oxo-8-[3-(2-trifluoromethyl-10H-phenothiazin-10-yl)propyl]-1-oxa-3,8-diazaspiro[4,5]decane] | 235 mg/kg | 1.9 mg/kg | 1.2 mg/kg | 0.7 mg/kg | -9.9 C° |
| CN(C)CCCN1c2ccccc2Sc2ccc(Cl)cc21 [CPZ, 2-chloro-10-(3-dimethylaminopropyl)phenothiazine, reference compound] | 225 mg/kg | 17.1 mg/kg | 4.3 mg/kg | 7.2 mg/kg | -7.9 C° |
| C=C1N(C)C(=O)OC12CCN(CCCN1c3ccccc3Sc3ccc(Cl)cc31)CC2 [Compound A, 8-[3-(2-chloro-10H-phenothiazin-10-yl)propyl]-3-methyl-4-methylene-2-oxo-1-oxa-3,8-diazaspiro[4,5]decane] | 353 mg/kg | 6 mg/kg | 1.7 mg/kg | 0.6 mg/kg | -8.8 C° |
| C=C1N(CC)C(=O)OC12CCN(CCCN1c3ccccc3Sc3ccc(C(F)(F)F)cc31)CC2 [D, 3-ethyl-4-methylene-2-oxo-8-[3-(2-trifluoromethyl-10H-phenothiazin-10-yl)propyl]-1-oxa-3,8-diazaspiro[4,5]decane] | 500 mg/kg | 6.8 mg/kg | 2.5 mg/kg | 4.1 mg/kg | -8.2 C° |
| C=C1N(CCC)C(=O)OC12CCN(CCCN1c3ccccc3Sc3ccc(Cl)cc31)CC2 [E] |  | 10.6 mg/kg | 2 mg/kg | 1.8 mg/kg | -5.6 C° |
| CN1C(=O)OC2(CCN(CCCN3c4ccccc4Sc4ccc(Cl)cc43)CC2)C1(C)O (centres unmarked) [F, 8-[3-(2-chloro-10H-phenothiazin-10-yl)propyl]-3,4-dimethyl-4-hydroxy-2-oxo-1-oxa-3,8-diazaspiro[4,5]decane] |  | 4.6 mg/kg |  | 0.7 mg/kg | -9.1 C° |
| CCN1C(=O)OC2(CCN(CCCN3c4ccccc4Sc4ccc(Cl)cc43)CC2)C1(C)O (centres unmarked) [G, 8[3-(2-chloro-10H-phenothiazin-10-yl)propyl]-3-ethyl-4-hydroxy-4-methyl-2-oxo-1-oxa-3,8-diazaspiro[4,5]decane] |  | 6.9 mg/kg |  | 2.4 mg/kg | -8.1 C° |
| CN1C(=O)OC2(CCN(CCCN3c4ccccc4Sc4ccc(C(F)(F)F)cc43)CC2)C1(C)O (centres unmarked) [H, 3,4-dimethyl-4-hydroxy-2-oxo-8-[3-(2-trifluoromethyl-10H-phenothiazin-10-yl)propyl]-1-oxa-3,8-diazaspiro[4,5]decane] |  | 3.1 mg/kg |  | 0.9 mg/kg | -9.6 C° |
| CCCN1C(=O)OC2(CCN(CCCN3c4ccccc4Sc4ccc(C(F)(F)F)cc43)CC2)C1(C)O (centres unmarked) [I, 4-hydroxy-4-methyl-2-oxo-3-propyl-8-[3-(2-trifluoromethyl-10H-phenothiazin-10-yl)propyl]-1-oxa-3,8-diazaspiro[4,5]decane] |  | 5.6 mg/kg |  | 4.2 mg/kg | -7.0 C° |
